Here are results for 35 compounds from patent US9018208B2, “Heterocycles as potassium channel modulators” (Icagen Inc., priority 2007, dated 2015).

A value given as a limit tells only on which side of the number the result lay.

By EC50 is commonly meant the concentration needed to bring the measured effect to its halfway point.

The subject of the assay is SH-SY5Y M-currents (KCNQ2, KCNQ3 and KCNQ5). Briefly: SH-SY5Y native cell line FLIPR assay (voltage-sensitive dye DiBAC). In kind it is cell-based, mouse neuroblastoma, rat glioma hybrid cell line. The conditions noted are these: FLIPR assay, SH-SY5Y native cell line; Table 2; read-out: SH-SY5Y EC50. In a few lines: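 Response is peak DiBAC fluorescence change, normalised to the maximum from a positive control agent, sampled every 30 s over 25 min. Before compound addition, SH-SY5Y cells differentiated with PGE1 plus isomethylbutylxanthine were dye-loaded for 1 h in EBSS with […] DiBAC.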
With `CC(C)(C)CC(=O)Nc1nc2ccc(F)cn2c1-c1cccc(OC(F)(F)F)c1` [Compound 182, N-(6-fluoro-3-(3-(trifluoromethoxy)phenyl)imidazo[1,2-a]pyridin-2-yl)-3,3 dimethylbutanamide], the concentration giving a half-maximal response (EC50) is less than 0.5 µM.

`O=C(Cc1ccc(F)cc1)Nc1nc2ccc(F)cn2c1-c1cccc(OC(F)(F)F)c1` [Compound 183, N-(6-fluoro-3-(3-(trifluoromethoxy)phenyl)imidazo[1,2-a]pyridin-2-yl)-2-(4-fluorophenyl) acetamide]: the EC50 was less than 0.5 µM.

For the compound `CC(C)C(C)C(=O)Nc1nc2ccc(F)cn2c1-c1ccc(C(F)(F)F)cc1` (centres unmarked) [Compound 184, N-(6-fluoro-3-(4-(trifluoromethyl)phenyl)imidazo[1,2-a]pyridin-2-yl)-2,3-dimethylbutanamide], the EC50 lay in the range of 0.5 to 3 µM.

On to `O=C(CC1CCC1)Nc1nc2ccc(F)cn2c1-c1ccc(C(F)(F)F)cc1` [Compound 185, 2-cyclobutyl-N-(6-fluoro-3-(4-(trifluoromethyl)phenyl)imidazo[1,2-a]pyridin-2-yl)acetamide], for which the EC50 is less than 0.5 µM.

Turning to `Cc1ccc2nc(NC(=O)Cc3ccc(C(F)(F)F)cc3)c(-c3ccc(F)cc3)n2c1` [Compound 186, N-(3-(4-fluorophenyl)-6-methylimidazo[1,2-a]pyridin-2-yl)-2-(4-(trifluoromethyl)phenyl)acetamide], the half-maximal effective concentration (EC50) is less than 0.5 µM.

In the case of `Cc1ccn2c(-c3ccc(F)cc3)c(NC(=O)Cc3ccc(C(F)(F)F)cc3)nc2c1` [Compound 187, N-(3-(4-fluorophenyl)-7-methylimidazo[1,2-a]pyridin-2-yl)-2-(4-(trifluoromethyl)phenyl)acetamide], the EC50 is less than 0.5 µM.

Regarding `CC(C)(C)CCC(=O)Nc1nc2ccc(F)cn2c1-c1ccc(C(F)(F)F)cc1` [Compound 188, N-(6-fluoro-3-(4-(trifluoromethyl)phenyl)imidazo[1,2-a]pyridin-2-yl)-4,4-dimethylpentanamide], the EC50 was less than 0.5 µM.

Take `CC(=O)OCC(C)(C)CC(=O)Nc1nc2ccc(F)cn2c1-c1ccc(C(F)(F)F)cc1` [Compound 189, 4-(6-fluoro-3-(4-(trifluoromethyl)phenyl)imidazo[1,2-a]pyridin-2-ylamino)-2,2-dimethyl-4-oxobutyl acetate]: the half-maximal effective concentration (EC50) was in the range of 3 to 10 µM.

As to `CC(C)(CO)CC(=O)Nc1nc2ccc(F)cn2c1-c1ccc(C(F)(F)F)cc1` [Compound 190, N-(6-fluoro-3-(4-(trifluoromethyl)phenyl)imidazo[1,2-a]pyridin-2-yl)-4-hydroxy-3,3-dimethylbutanamide], the EC50 was 3 to 10 µM.

On to `CC(=O)OCC(C)(C)CC(=O)Nc1nc2ccc(F)cn2c1-c1ccc(OC(F)(F)F)cc1` [Compound 191, 4-(6-fluoro-3-(4-(trifluoromethoxy)phenyl)imidazo[1,2-a]pyridin-2-ylamino)-2,2-dimethyl-4-oxobutyl acetate], for which the EC50 was 3 to 10 µM.

In the case of `CC(C)(CO)CC(=O)Nc1nc2ccc(F)cn2c1-c1ccc(OC(F)(F)F)cc1` [Compound 192, N-(6-fluoro-3-(4-(trifluoromethoxy)phenyl)imidazo[1,2-a]pyridin-2-yl)-4-hydroxy-3,3-dimethylbutanamide], the EC50 was in the range of 0.5 to 3 µM.

Turning to `CC1(CC(=O)Nc2nc3ccc(F)cn3c2-c2ccc(OC(F)(F)F)cc2)CCCC1` [Compound 193, N-(6-fluoro-3-(4-(trifluoromethoxy)phenyl)imidazo[1,2-a]pyridin-2-yl)-2-(1-methylcyclopentyl)acetamide], the EC50 is less than 0.5 µM.

On to `O=C(CC1CCC1)Nc1nc2ccc(F)cn2c1-c1ccc(OC(F)(F)F)cc1` [Compound 194, 2-cyclobutyl-N-(6-fluoro-3-(4-(trifluoromethoxy)phenyl)imidazo[1,2-a]pyridin-2-yl)acetamide], for which the EC50 is less than 0.5 µM.

Take `CC(CC(=O)Nc1nc2ccc(F)cn2c1-c1ccc(OC(F)(F)F)cc1)C(F)(F)F` (centres unmarked) [Compound 195, 4,4,4-trifluoro-N-(6-fluoro-3-(4-(trifluoromethoxy)phenyl)imidazo[1,2-a]pyridin-2-yl)-3-methylbutanamide]: the EC50 was less than 0.5 µM.

On to `CC(C)(C)CC(=O)Nc1nc2ccc(F)cn2c1-c1ccc(F)c(C(F)F)c1` [Compound 196, N-(3-(3-(difluoromethyl)-4-fluorophenyl)-6-fluoroimidazo[1,2-a]pyridin-2-yl)-3,3-dimethylbutanamide], for which the EC50 was less than 0.5 µM.

For `CC(C)(C)CC(=O)Nc1nc2ccc(F)cn2c1-c1ccc(C#N)c(F)c1` [Compound 197, N-(3-(4-cyano-3-fluorophenyl)-6-fluoroimidazo[1,2-a]pyridin-2-yl)-3,3-dimethylbutanamide], the EC50 lay within 0.5 to 3 µM.

`CC(C)(C)CC(=O)Nc1nc2ccc(F)cn2c1-c1ccc(C(F)(F)F)c(F)c1` [Compound 199, N-(6-fluoro-3-(3-fluoro-4-(trifluoromethyl)phenyl)imidazo[1,2-a]pyridin-2-yl)-3,3-dimethylbutanamide]: the EC50 was less than 0.5 µM.

With `COc1ccc(-c2c(NC(=O)CC(C)(C)C)nc3ccc(F)cn23)cc1C(F)(F)F` [Compound 200, N-(6-fluoro-3-(4-methoxy-3-(trifluoromethyl)phenyl)imidazo[1,2-a]pyridin-2-yl)-3,3-dimethylbutanamide], the EC50 is less than 0.5 µM.

In the case of `Cc1ccc(-c2c(NC(=O)CC(C)(C)C)nc3ccc(F)cn23)cc1F` [Compound 201, N-(6-fluoro-3-(3-fluoro-4-methylphenyl)imidazo[1,2-a]pyridin-2-yl)-3,3-dimethylbutanamide], the EC50 was less than 0.5 µM.

Regarding `CC(C)(C)C(F)(F)C(=O)Nc1nc2ccc(F)cn2c1-c1ccc(C(F)(F)F)cc1` [Compound 202, 2,2-difluoro-N-(6-fluoro-3-(4-(trifluoromethyl)phenyl)imidazo[1,2-a]pyridin-2-yl)-3,3-dimethylbutanamide], the EC50 was less than 0.5 µM.

Take `O=C(Cc1ccc(F)cc1)Nc1nc2ccccn2c1-c1ccc(F)cc1` [Compound 203, 2-(4-fluorophenyl)-N-(3-(4-fluorophenyl)imidazo[1,2-a]pyridin-2-yl)acetamide]: the EC50 lay within 0.5 to 3 µM.

With `O=C(Cc1ccc(F)cc1)Nc1nc2ccccn2c1-c1ccc(C(F)(F)F)cc1` [Compound 204, 2-(4-fluorophenyl)-N-(3-(4-(trifluoromethyl)phenyl)imidazo[1,2-a]pyridin-2-yl)acetamide], the EC50 was less than 0.5 µM.

For the compound `O=C(Cc1ccc(F)cc1)Nc1nc2ccccn2c1-c1ccc(OC(F)(F)F)cc1` [Compound 205, 2-(4-fluorophenyl)-N-(3-(4-(trifluoromethoxy)phenyl)imidazo[1,2-a]pyridin-2-yl)acetamide], the EC50 was less than 0.5 µM.

On to `CC(C)(C)OCC(=O)Nc1nc2ccc(F)cn2c1-c1ccc(C(F)(F)F)cc1` [Compound 206, 2-tert-butoxy-N-(6-fluoro-3-(4-(trifluoromethyl)phenyl)imidazo[1,2-a]pyridin-2-yl)acetamide], for which the EC50 was in the range of 3 to 10 µM.

As to `O=C(Cc1ccccc1)Nc1nc2ccc(F)cn2c1-c1ccc(OC(F)(F)F)cc1` [Compound 207, N-(6-fluoro-3-(4-(trifluoromethoxy)phenyl)imidazo[1,2-a]pyridin-2-yl)-2-phenylacetamide], the EC50 is less than 0.5 µM.

With `CC(C)(C)OCC(=O)Nc1nc2ccc(F)cn2c1-c1ccc(OC(F)(F)F)cc1` [Compound 208, 2-tert-butoxy-N-(6-fluoro-3-(4-(trifluoromethoxy)phenyl)imidazo[1,2-a]pyridin-2-yl)acetamide], the EC50 lay within 3 to 10 µM.

Consider `CC(CC(=O)Nc1nc2ccc(F)cn2c1-c1ccc(F)c(F)c1)C(F)(F)F` (centres unmarked) [Compound 209, N-(3-(3,4-difluorophenyl)-6-fluoroimidazo[1,2-a]pyridin-2-yl)-4,4,4-trifluoro-3-methylbutanamide], for which the half-maximal effective concentration (EC50) is less than 0.5 µM.

As to `O=C(Cc1ccc(F)cc1)Nc1nc2ccc(F)cn2c1-c1ccc(F)c(F)c1` [Compound 210, N-(3-(3,4-difluorophenyl)-6-fluoroimidazo[1,2-a]pyridin-2-yl)-2-(4-fluorophenyl)acetamide], the EC50 was less than 0.5 µM.

On to `O=C(Cc1ccccc1)Nc1nc2ccc(F)cn2c1-c1ccc(F)c(F)c1` [Compound 211, N-(3-(3,4-difluorophenyl)-6-fluoroimidazo[1,2-a]pyridin-2-yl)-2-phenylacetamide], for which the EC50 was less than 0.5 µM.

Consider `CC(C)(C)CC(=O)Nc1nc2ccc(F)cn2c1-c1ccc(F)c(F)c1` [Compound 212, N-(3-(3,4-difluorophenyl)-6-fluoroimidazo[1,2-a]pyridin-2-yl)-3,3-dimethylbutanamide], for which the EC50 was less than 0.5 µM.

Turning to `O=C(NCCc1ccc(F)cc1)Nc1nc2ccc(F)cn2c1-c1ccc(C(F)(F)F)cc1` [Compound 213, 1-(6-fluoro-3-(4-(trifluoromethyl)phenyl)imidazo[1,2-a]pyridin-2-yl)-3-(4-fluorophenethyl)urea], the 50% effective concentration (EC50) is 3 to 10 µM.

On to `O=C(NCc1ccc(F)cc1)Nc1nc2ccc(F)cn2c1-c1ccc(C(F)(F)F)cc1` [Compound 214, 1-(6-fluoro-3-(4-(trifluoromethyl)phenyl)imidazo[1,2-a]pyridin-2-yl)-3-(4-fluorobenzyl)urea], for which the EC50 was in the range of 0.5 to 3 µM.

`CC(C)(C)NC(=O)Nc1nc2ccc(F)cn2c1-c1ccc(C(F)(F)F)cc1` [Compound 215, 1-tert-butyl-3-(6-fluoro-3-(4-(trifluoromethyl)phenyl)imidazo[1,2-a]pyridin-2-yl)urea]: the half-maximal effective concentration (EC50) lay in the range of 0.5 to 3 µM.

As for `CC(C)(C)CC(=O)Nc1nc2cc(Cl)c(Cl)cn2c1-c1ccc(OC(F)(F)F)cc1` [Compound 216, N-(6,7-dichloro-3-(4-(trifluoromethoxy)phenyl)imidazo[1,2-a]pyridin-2-yl)-3,3-dimethylbutanamide], the EC50 was less than 0.5 µM.

With `O=C(Cc1ccc(F)cc1)Nc1nc2cc(Cl)c(Cl)cn2c1-c1ccc(OC(F)(F)F)cc1` [Compound 217, N-(6,7-dichloro-3-(4-(trifluoromethoxy)phenyl)imidazo[1,2-a]pyridin-2-yl)-2-(4-fluorophenyl)acetamide], the EC50 lay within 0.5 to 3 µM.
